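The concentration for 50% growth inhibition is given as GI50. TGI: total growth inhibition.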
Key:
Assay in all cases: growth of human tumour cells (NCI), 384-well format
NCI/ADR-RES ovarian = system: NCI/ADR-RES ovarian
MDA-MB-468 breast = system: MDA-MB-468 breast
HL-60(TB) leukemia = system: HL-60(TB) leukemia
MALME-3M melanoma = system: MALME-3M melanoma
SW-620 colon = system: SW-620 colon
LOX IMVI melanoma = system: LOX IMVI melanoma
MDA-MB-231 breast = system: MDA-MB-231 breast
OVCAR-5 ovarian = system: OVCAR-5 ovarian
EKVX NSCLC = system: EKVX NSCLC
HT29 colon = system: HT29 colon
NCI-H322M lung = system: NCI-H322M lung
MDA-MB-435 melanoma = system: MDA-MB-435 melanoma
SF-539 CNS = system: SF-539 CNS
U251 glioblastoma = system: U251 glioblastoma
RPMI-8226 leukemia = system: RPMI-8226 leukemia
MOLT-4 leukemia = system: MOLT-4 leukemia
NCI-H226 lung = system: NCI-H226 lung
HCC-2998 colon = system: HCC-2998 colon
SK-OV-3 ovarian = system: SK-OV-3 ovarian
CAKI-1 renal = system: CAKI-1 renal
HCT-15 colon = system: HCT-15 colon
RXF 393 renal = system: RXF 393 renal
HS 578T breast = system: HS 578T breast
A549 NSCLC = system: A549 NSCLC
OVCAR-3 ovarian = system: OVCAR-3 ovarian
A498 renal = system: A498 renal
KM12 colon = system: KM12 colon
IGROV1 ovarian = system: IGROV1 ovarian
PC-3 prostate = system: PC-3 prostate
SK-MEL-5 melanoma = system: SK-MEL-5 melanoma
SNB-75 CNS = system: SNB-75 CNS
MCF7 breast = system: MCF7 breast
SR leukemia = system: SR leukemia
HCT-116 colon = system: HCT-116 colon
SK-MEL-28 melanoma = system: SK-MEL-28 melanoma
BT-549 breast = system: BT-549 breast
K-562 leukemia = system: K-562 leukemia
SF-268 CNS = system: SF-268 CNS
NCI-H460 NSCLC = system: NCI-H460 NSCLC
NCI-H522 lung = system: NCI-H522 lung
SNB-19 CNS = system: SNB-19 CNS
COLO 205 colon = system: COLO 205 colon
UO-31 renal = system: UO-31 renal
T-47D breast = system: T-47D breast
SN12C renal = system: SN12C renal
UACC-257 melanoma = system: UACC-257 melanoma

With `Cc1c(F)c(N)c2c(=O)cc(-c3ccc(N)c(F)c3)oc2c1F` the GI50 (NCI/ADR-RES ovarian) was 14.1 µM, the TGI (NCI/ADR-RES ovarian) was > 100 µM and the GI50 (MDA-MB-468 breast) was < 0.01 µM. For the same molecule, the GI50 (HL-60(TB) leukemia) was 0.157 µM, the TGI (HL-60(TB) leukemia) was > 100 µM and the GI50 (MALME-3M melanoma) was 28.6 µM. The TGI (MALME-3M melanoma) was 86.5 µM, the GI50 (SW-620 colon) was > 100 µM and the TGI (SW-620 colon) was > 100 µM. The GI50 (LOX IMVI melanoma) was > 100 µM, the TGI (LOX IMVI melanoma) was > 100 µM and the GI50 (MDA-MB-231 breast) was 26.7 µM. For the same molecule, the TGI (MDA-MB-231 breast) was > 100 µM, the GI50 (OVCAR-5 ovarian) was < 0.01 µM and the GI50 (EKVX NSCLC) was 2.98 µM. For the same molecule, the TGI (EKVX NSCLC) was > 100 µM, the GI50 (HT29 colon) was > 100 µM and the TGI (HT29 colon) was > 100 µM. The GI50 (NCI-H322M lung) was 24.3 µM, the TGI (NCI-H322M lung) was > 100 µM and the GI50 (MDA-MB-435 melanoma) was 34.9 µM. For the same molecule, the TGI (MDA-MB-435 melanoma) was > 100 µM, the GI50 (SF-539 CNS) was 28 µM and the TGI (SF-539 CNS) was > 100 µM. The GI50 (U251 glioblastoma) was 18 µM, the TGI (U251 glioblastoma) was > 100 µM and the GI50 (RPMI-8226 leukemia) was 14.2 µM. For the same molecule, the TGI (RPMI-8226 leukemia) was > 100 µM, the GI50 (MOLT-4 leukemia) was 85.1 µM and the TGI (MOLT-4 leukemia) was > 100 µM. For the same molecule, the GI50 (NCI-H226 lung) was < 0.01 µM, the GI50 (HCC-2998 colon) was < 0.01 µM and the TGI (HCC-2998 colon) was > 100 µM. For the same molecule, the GI50 (SK-OV-3 ovarian) was 29.3 µM, the TGI (SK-OV-3 ovarian) was > 100 µM and the GI50 (CAKI-1 renal) was < 0.01 µM. For the same molecule, the TGI (CAKI-1 renal) was > 100 µM, the GI50 (HCT-15 colon) was > 100 µM and the TGI (HCT-15 colon) was > 100 µM. For the same molecule, the GI50 (RXF 393 renal) was 10.5 µM, the TGI (RXF 393 renal) was 31.5 µM and the GI50 (HS 578T breast) was 10.7 µM. The TGI (HS 578T breast) was 29.5 µM, the GI50 (A549 NSCLC) was 29.9 µM and the TGI (A549 NSCLC) was > 100 µM. The GI50 (OVCAR-3 ovarian) was 0.0251 µM, the TGI (OVCAR-3 ovarian) was 37.9 µM and the GI50 (A498 renal) was < 0.01 µM. The TGI (A498 renal) was 0.13 µM, the GI50 (KM12 colon) was 93 µM and the TGI (KM12 colon) was > 100 µM. For the same molecule, the GI50 (IGROV1 ovarian) was < 0.01 µM, the GI50 (PC-3 prostate) was > 100 µM and the TGI (PC-3 prostate) was > 100 µM. For the same molecule, the GI50 (SK-MEL-5 melanoma) was < 0.01 µM, the TGI (SK-MEL-5 melanoma) was > 100 µM and the GI50 (SNB-75 CNS) was 10.8 µM. The TGI (SNB-75 CNS) was 25.2 µM, the GI50 (MCF7 breast) was < 0.01 µM and the TGI (MCF7 breast) was 0.0338 µM. For the same molecule, the GI50 (SR leukemia) was 4.12 µM, the TGI (SR leukemia) was > 100 µM and the GI50 (HCT-116 colon) was 28 µM. For the same molecule, the TGI (HCT-116 colon) was > 100 µM, the GI50 (SK-MEL-28 melanoma) was > 100 µM and the TGI (SK-MEL-28 melanoma) was > 100 µM. For the same molecule, the GI50 (BT-549 breast) was 16.4 µM, the TGI (BT-549 breast) was 40.4 µM and the GI50 (K-562 leukemia) was 1.75 µM. For the same molecule, the GI50 (SF-268 CNS) was 23.2 µM, the TGI (SF-268 CNS) was 97.6 µM and the GI50 (NCI-H460 NSCLC) was < 0.01 µM. For the same molecule, the TGI (NCI-H460 NSCLC) was > 100 µM, the GI50 (NCI-H522 lung) was 9.4 µM and the TGI (NCI-H522 lung) was 43.1 µM.

`COc1cccc(OCCCN)c1-c1cc(Nc2cnc(C#N)cn2)n[nH]1` showed a GI50 (NCI/ADR-RES ovarian) of 0.016 µM, a TGI (NCI/ADR-RES ovarian) of 0.0596 µM and a TGI (MDA-MB-468 breast) of 0.0116 µM. It also gave a TGI (MALME-3M melanoma) of 0.0349 µM, a GI50 (SW-620 colon) of 0.0715 µM and a TGI (SW-620 colon) of 2.29 µM. For the same molecule, the TGI (SNB-19 CNS) was 0.122 µM, the GI50 (LOX IMVI melanoma) was 0.0234 µM and the TGI (LOX IMVI melanoma) was 0.847 µM. For the same molecule, the GI50 (MDA-MB-231 breast) was 0.0353 µM, the TGI (MDA-MB-231 breast) was 5.25 µM and the TGI (OVCAR-5 ovarian) was 0.017 µM. The TGI (EKVX NSCLC) was 12.7 µM, the GI50 (HT29 colon) was 0.0199 µM and the TGI (HT29 colon) was 0.145 µM. It also gave a GI50 (COLO 205 colon) of 0.0169 µM, a TGI (COLO 205 colon) of 0.133 µM and a GI50 (U251 glioblastoma) of 0.0255 µM. The TGI (U251 glioblastoma) was 11.9 µM, the TGI (RPMI-8226 leukemia) was 0.0278 µM and the TGI (UO-31 renal) was 16.3 µM. For the same molecule, the GI50 (NCI-H226 lung) was 5.36 µM, the TGI (NCI-H226 lung) was 18.8 µM and the GI50 (T-47D breast) was 1.83 µM. The TGI (T-47D breast) was 18.3 µM, the GI50 (CAKI-1 renal) was 0.0354 µM and the TGI (CAKI-1 renal) was 2.62 µM. The GI50 (HCT-15 colon) was 0.0121 µM, the TGI (HCT-15 colon) was 0.0288 µM and the TGI (A549 NSCLC) was 14.2 µM. For the same molecule, the TGI (KM12 colon) was 0.0867 µM, the TGI (IGROV1 ovarian) was 1.27 µM and the GI50 (PC-3 prostate) was 0.0559 µM. For the same molecule, the TGI (PC-3 prostate) was 13.2 µM, the GI50 (SNB-75 CNS) was 0.0171 µM and the TGI (SNB-75 CNS) was 0.49 µM. For the same molecule, the GI50 (SN12C renal) was 0.0396 µM, the TGI (SN12C renal) was 0.761 µM and the TGI (MCF7 breast) was 13.3 µM. For the same molecule, the TGI (BT-549 breast) was 0.0242 µM, the GI50 (SF-268 CNS) was 0.0249 µM and the TGI (SF-268 CNS) was 6.59 µM. For the same molecule, the GI50 (NCI-H460 NSCLC) was 0.0209 µM, the TGI (NCI-H460 NSCLC) was 0.121 µM and the GI50 (NCI-H522 lung) was 0.0352 µM. The TGI (NCI-H522 lung) was 0.833 µM, the GI50 (UACC-257 melanoma) was 0.0181 µM and the TGI (UACC-257 melanoma) was 0.0814 µM.
